Results as given in patent US20150344444A1, “BET-PROTEIN-INHIBITING DIHYDROXYQUINOXALINONES” (BAYER PHARMA AKTIENGESELLSCHAFT, priority 2012, published 2015).

Assays:
B16F10 cells = test: B16F10 cell proliferation assay (alamarBlue); type: cell-based; details: B16-F10; inhibition of cell proliferation, 96 hours, mouse melanoma cell line
Description: (§1) In accordance with the invention, the ability of the substances to inhibit cell proliferation was determined Cell viability was determined by means of the alamarBlue® reagent (Invitrogen) in a Victor X3 Multilabel Reader (Perkin Elmer). The excitation wavelength was 530 nm and the emission wavelength […].
The B16F10 cells (ATCC, CRL-6475) were sown at a concentration of 300-500 cells/well in 100 μl of growth medium (DMEM with phenol red, 10% FCS) on 96-well microtitre plates.
(§2) After overnight incubation at 37° C., the fluorescence values were determined (CI values). Then the plates were treated with various substance dilutions (1E-5 M, 3E-6 M, 1E-6 M, 3E-7 M, 1E-7 M, 3E-8 M, 1E-8 M) and incubated at 37° C. over 96 hours (MOLM-13, B16F10 cells) or 120 hours (MOLP-8 cells). Subsequently, the fluorescence values were determined (CO values). For the data analysis, the CI values were subtracted from the CO values and the results were compared between cells which had been treated with various dilutions of the substance or only with buffer solution. The IC50 values (substance concentration needed for 50% inhibition of cell proliferation) were calculated therefrom.
B16F10 mouse melanoma cell line

MOLM-13 cells = test: MOLM-13 cell proliferation assay (alamarBlue); type: cell-based; details: inhibition of cell proliferation, 96 hours, human AML cell line
Description: as §1
The MOLM-13 cells (DSMZ, ACC 554) were sown at a concentration of 4000 cells/well in 100 μl of growth medium (RPMI1640, 10% FCS) on 96-well microtitre plates.
as §2
MOLM-13 human AML (acute myeloid leukaemia) cell line

MOLP-8 cells = test: MOLP-8 cell proliferation assay (alamarBlue); type: cell-based; details: inhibition of cell proliferation, 120 hours, human multiple myeloma cell line
Description: as §1
The MOLP-8 cells (DSMZ, ACC 569) were sown at a concentration of 4000 cells/well in 100 μl of growth medium (RPMI1640, 20% FCS) on 96-well microtitre plates.
as §2
MOLP-8 human multiple myeloma cell line

[1] = target: T1, BRD4 Bromo Domain 1 [BRD4(1)] (Homo sapiens, UniProt O60885); test: BRD4(1)/acetylated peptide H4 binding assay (TR-FRET); details: inhibition of interaction between His6-tagged BRD4(1) (amino acids 67-152) and acetylated histone H4 peptide
T1 construct: N-terminally His6-tagged BRD4(1) (amino acids 67-152); made in house; host or cells: E. coli
Description: Protein-Protein Interaction Assay: BRD4/Acetylated Peptide H4 Binding Assay
1. Assay Description for BRD4 Bromo Domain 1 [BRD4(1)]
To assess the BRD4(1) binding strength of the substances described in this application, the ability thereof to inhibit the interaction between BRD4(1) and acetylated histone H4 in a dose-dependent manner was quantified.
For this purpose, a time-resolved fluorescence resonance energy transfer (TR-FRET) assay was used, which measures the binding between N-terminally His6-tagged BRD4(1) (amino acids 67-152) and a synthetic acetylated histone H4 (Ac-H4) peptide with sequence GRGK(Ac)GGK(Ac)GLGK(Ac)GGAK(Ac)RHGSGSK-biotin. The recombinant BRD4(1) protein produced in house according to Filippakopoulos et al., Cell, 2012, 149:214-231 was expressed in E. coli and purified by means of (Ni-NTA) affinity and (Sephadex G-75) size exclusion chromatography. The Ac-H4 peptide can be purchased, for example, from Biosyntan (Berlin, Germany).
In the assay, typically 11 different concentrations of each substance (0.1 nM, 0.33 nM, 1.1 nM, 3.8 nM, 13 nM, 44 nM, 0.15 μM, 0.51 μM, 1.7 μM, 5.9 μM and 20 μM) were analysed as duplicates on the same microtitre plate. For this purpose, 100-fold concentrated solutions in DMSO were prepared by serial dilutions (1:3.4) of a 2 mM stock solution into a clear, 384-well microtitre plate (Greiner Bio-One, Frickenhausen, Germany). From this, 50 nl were transferred into a black test plate (Greiner Bio-One, Frickenhausen, Germany). The test was started by the addition of 2 μl of a 2.5-fold concentrated BRD4(1) solution (final concentration typically 10 nM in the 5 μl of reaction volume) in aqueous assay buffer [50 mM HEPES pH 7.5, 50 mM sodium chloride (NaCl), 0.25 mM CHAPS and 0.05% serum albumin (BSA)] to the substances in the test plate. This was followed by a 10-minute incubation step at 22° C. for the pre-equilibration of putative complexes between BRD4(1) and the substances.
The mixture was then incubated in the dark at 22° C. for one hour and then at 4° C. for at least 3 hours and for no longer than overnight. The formation of BRD4(1)/Ac-H4 complexes was determined by the measurement of the resonance energy transfer from the streptavidin-Eu cryptate to the anti-6His-XL665 antibody present in the reaction. For this purpose, the fluorescence emission was measured at 620 nm and 665 nm after excitation at 330-350 nm in a TR-FRET measuring instrument, for example a Rubystar or Pherastar (both from BMG Lab Technologies, Offenburg, Germany) or a Viewlux (Perkin-Elmer). The ratio of the emissions at 665 nm and at 622 nm was taken as an indicator of the amount of BRD4(1)/Ac-H4 complexes formed.
The data (ratios) obtained were normalized, with 0% inhibition corresponding to the mean from the measurements for a set of controls (typically 32 data points) in which all the reagents were present. In these, in place of test substances, 50 nl of DMSO (100%) were used Inhibition of 100% corresponded to the mean from the measurements for a set of controls (typically 32 data points) in which all the reagents except BRD4(1) were present. The IC50 was determined by regression analysis based on a 4-parameter equation (minimum, maximum, IC50, Hill; Y=max+(min−max)/(1+(X/IC50)Hill).

**Q.** `C[C@@H]1C(=O)N(C)c2ccc(Nc3ccc(C(=O)NC4CCN(C)CC4)cc3)cc2N1C1CCCC1` [Example 4, 4-{[(3R)-4-cyclopentyl-1,3-dimethyl-2-oxo-1,2,3,4-tetrahydroquinoxalin-6-yl]amino}-N-(1-methylpiperidin-4-yl)benzamide] was tested. Which IC50 (B16F10 cells) did it give?
**A.** The IC50 was 0.643 µM.

**Q.** What about the IC50 (MOLM-13 cells) of the same molecule?
**A.** Its IC50 is 0.356 µM.

**Q.** And the IC50 (MOLP-8 cells)?
**A.** The IC50 was 0.468 µM.

**Q.** What about the IC50 [1] of the same molecule?
**A.** Its IC50 is 0.05 µM.
